The target of experiment [1] is T1, p300 (1-111) (Homo sapiens, UniProt Q09472).
T1 construct: 6xHis (C); HSV tag (C); expressed in transfected cells
Kind of experiment: Pull-down of p300 deletion constructs on COMPOUND 2 coated beads, competition with excess COMPOUND 1. To be noted: p300 (1-111), (1-211), (1-351) in SW480 lysates, 150 μM COMPOUND 1. The format is binding. How it is done: FIG. 2. The first 111 amino acids of CBP, but not p300, specifically bind COMPOUND 1. • A. Schematic representation of the wild-type and deletion constructs for CBP. • B. CBP (1-111) contains the minimal binding domain of COMPOUND 1. Expression levels of CBP deletion constructs in SW480 cells are shown (upper panel). 10 μg of total protein was subjected to gel electrophoresis and subjected to immunoblotting using anti-His antibodies. Whole cell lysates of SW480 cells expressing CBP deletion constructs were bound to streptavidin-agarose beads coated with 100 μM of COMPOUND 2. The bound fractions were subjected to gel electrophoresis and immunoblotting using anti-His antibodies (lower panel). Arrows point to constructs which remained bound to COMPOUND 2 coated beads. • C. […] CBP deletion constructs, CBP(1-111),CBP (1-211), and CBP (1-351) and p300 deletion constructs, p300 (1-111), p300 (1-211), and p300 (1-351) were transfected into SW480 cells. Whole cell lysates were incubated with streptavidin-agarose beads or streptavidin-agarose beads coated with 100 μM COMPOUND 2 (lower panel). The binding of CBP constructs (1-111,1-211, and 1-351) and p300 constructs (1-111,1-211, and 1-351) to the beads was challenged with excess COMPOUND 1 (150 μM). • D. CBP (1-111) binds to COMPOUND 1 in a phosphorylation independent manner. […]

Experiment [2] concerns NFAT reporter construct. Kind of experiment: NFAT reporter assay in stably transfected Jurkat cells. The format is cell-based. On the procedure: FIG. 1. COMPOUND 1 inhibits β-catenin/TCF transcription. • A(i) and A(ii). Structures of COMPOUND 1, COMPOUND 2, COMPOUND 3, COMPOUND 4, and COMPOUND 5. • B(i) and B(ii). […] SW480 cells (10^5), (FIG. 1B(i)), were transfected with β-catenin/TCF luciferase construct. Cells were treated with COMPOUND 1 (1-64 μM). 24 hours post treatment lysates were prepared and subjected to dual luciferase assay. The data is represented in different form in FIG. 1B(ii). • C. COMPOUND 1 has no effect on NFAT reporter construct. Stably transfected Jurkat cells, right panel, with an NFAT reporter construct, were stimulated with PMA (10 ng/ml)/lonomycin (1 μg/ml), and treated with COMPOUND 1 (0.781-50 μM). 24 hours post treatment lysates were prepared and subjected to dual luciferase assay. All experiments were performed in duplicate and the values plotted as means +/−standard deviation. • D. CBP is the molecular target of COMPOUND 1. Nuclear extracts of SW480 cells were incubated with streptavidin-agarose beads coated with COMPOUND 2 (25 μM). Beads were washed 3 times and the eluted were subjected to gel electrophoresis and immunoblotting, with anti-CBP antibodies. […] The lysates were desalted using G-25 1 cc columns (Pharmacia) to remove the unbound ^14C-labeled-COMPOUND 1, and ^14C-labeled-COMPOUND 1 incorporation was measured.

T1 sequence (Q09472 1-117): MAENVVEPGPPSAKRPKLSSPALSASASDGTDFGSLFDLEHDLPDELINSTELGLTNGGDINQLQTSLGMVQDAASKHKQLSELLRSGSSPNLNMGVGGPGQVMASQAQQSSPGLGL

For the molecule `O=C1C(Cc2ccc(O)cc2)N2C(=O)CCN(C(=O)NCc3ccccc3)C2CN1Cc1cccc2ccccc12` (stereo not drawn) [COMPOUND 1], in experiment [1], the “Competition of p300 fragment binding to COMPOUND 2 beads by excess COMPOUND 1” value was “failed to have any effect”. The “Effect on NFAT reporter construct” value in experiment [2] (Jurkat cells, PMA/Ionomycin stimulated, 0.781-50 μM, 24 hours) is “no effect”. Moreover, in experiment [2] (including NFAT, CRE and AP-1 (CRE, AP-1 data not shown)), the “Selectivity versus other CBP-dependent reporters” value was “very good selectivity”.

Source of the values: patent US7531320B2, “Modulation of β-catenin/TCF-activated transcription” (priority 2003, dated 2009).
